Calls of active or inactive are those of the source. No cut-off for these calls is given here. Where a SMILES comes first, the peptide text is derived from it. [ ]: non-standard residue; d: D form. The star is where a group is joined. X1 = COc1cccc2c1C(=O)c1c(O)c3c(c(O)c1C2=O)C[C@@](O)(C(=O)CO)C[C@@H]3O[C@H]1C[C@H](NC(=O)OCc2ccc(NC(=O)C(CCCNC(N)=O)NC(=O)C(NC(=O)CCCCCN3C(=O)CC(*)C3=O)C(C)C)cc2)[C@H](O)[C@H](C)O1; C18 diacid = O=C(O)CCCCCCCCCCCCCCCCC(=O)*; AEEA = NCCOCCOCC(=O)O
Experiments:
[1] = system: MDA-MB-231; test: Cytotoxicity against ROR1-positive human MDA-MB-231 cells assessed as decrease in cell viability incubated for 24 hrs by CCK-8 assay; type: functional, cell-based; settings: MDA-MB-231, 24 h
[2] = system: SK-HEP1; test: Cytotoxicity against human SK-HEP1 cells assessed as decrease in cell viability incubated for 24 hrs by CCK-8 assay; type: functional, cell-based; settings: SK-HEP1, 24 h
[3] = Cytotoxicity against human MCF-10A cells assessed as decrease in cell viability incubated for 24 hrs by CCK-8 assay; type: toxicity, cell-based
[4] = Drug uptake in ROR1-positive human MDA-MB-231 cells assessed as increase in fluorescence intensity incubated for 0.25 to 2 hrs by Hoechst 33342 staining based confocal fluorescence microscopic analysis; type: ADME, cell-based; settings: time 0.25-2 hrs
[5] = system: MDA-MB-231; test: Induction of apoptosis in human MDA-MB-231 cells at 10 uM incubated for 24 hrs by Annexin V-FITC/PI staining based flow cytometric analysis; type: functional, cell-based
[6] = system: MDA-MB-231; test: Induction of apoptosis in human MDA-MB-231 cells assessed as viable cells at 16 nM incubated for 24 hrs by AnnexinV-FITC/PI staining based flow cytometry (reference value: 99.9%); type: functional; settings: read-out: Activity
[7] = system: MDA-MB-231; test: Induction of apoptosis in human MDA-MB-231 cells assessed as early apoptotic cells at 16 nM incubated for 24 hrs by AnnexinV-FITC/PI staining based flow cytometry (reference value: 0%); type: functional
[8] = system: MDA-MB-231; test: Induction of apoptosis in human MDA-MB-231 cells assessed as late apoptotic cells at 16 nM incubated for 24 hrs by AnnexinV-FITC/PI staining based flow cytometry (reference value: 0.034%); type: functional
[9] = system: MDA-MB-231; test: Induction of apoptosis in human MDA-MB-231 cells assessed as necrotic cells at 16 nM incubated for 24 hrs by AnnexinV-FITC/PI staining based flow cytometry (reference value: 0.034%); type: functional
[10] = system: MDA-MB-231; test: Antitumor activity against human MDA-MB-231 cells xenografted in BALB/c nude mouse assessed as reduction in tumor volume at 5 mg/kg, iv measured after first injection starting from day 3 on day 6; type: functional, organism-based; settings: time 3.0 day
[11] = Toxicity in BALB/c nude mouse xenografted with human MDA-MB-231 cells assessed as body weight loss at 5 mg/kg, iv administered once every 3 days for 27 days starting from day 3; type: organism-based; settings: in vivo, 576 h, time 24 day
[12] = system: MDA-MB-231; test: Antitumor activity against human MDA-MB-231 cells xenografted in BALB/c nude mouse assessed as tumor growth inhibition at 5 mg/kg, iv administered once every 3 days for 27 days starting from day 3; type: functional, organism-based; settings: time 24.0 day
[13] = Toxicity in BALB/c nude mouse xenografted in human MDA-MB-231 cells assessed as increase in urea level at 5 mg/kg, iv administered once every 3 days for 27 days starting from day 3; type: organism-based; settings: in vivo, 576 h, time 24 day
[14] = Toxicity in BALB/c nude mouse xenografted in human MDA-MB-231 cells assessed as increase in ALT level at 5 mg/kg, iv administered once every 3 days for 27 days starting from day 3; type: organism-based; settings: in vivo, 576 h, time 24 day
[15] = Toxicity in BALB/c nude mouse xenografted in human MDA-MB-231 cells assessed as increase in AST level at 5 mg/kg, iv administered once every 3 days for 27 days; type: organism-based; settings: in vivo, 576 h, time 24 day
[16] = Toxicity in BALB/c nude mouse xenografted in human MDA-MB-231 cells assessed as increase in ALP level at 5 mg/kg, iv administered once every 3 days for 27 days starting from day 3; type: organism-based; settings: in vivo, 576 h, time 24 day
[17] = Toxicity in BALB/c nude mouse xenografted with human MDA-MB-231 cells assessed as appearance of apoptotic/necrotic cells in kidney at 5 mg/kg, iv administered once every 3 days for 27 days starting from day 3 by H and E staining based analysis; type: organism-based; settings: in vivo, 576 h, time 24 day
[18] = Toxicity in BALB/c nude mouse xenografted with human MDA-MB-231 cells assessed as appearance of apoptotic/necrotic cells in heart at 5 mg/kg, iv administered once every 3 days for 27 days starting from day 3 by H and E staining based analysis; type: organism-based; settings: in vivo, 576 h, time 24 day
[19] = Toxicity in BALB/c nude mouse xenografted with human MDA-MB-231 cells assessed as appearance of apoptotic/necrotic cells in liver at 5 mg/kg, iv administered once every 3 days for 27 days starting from day 3 by H and E staining based analysis; type: organism-based; settings: in vivo, 576 h, time 24 day
[20] = Toxicity in BALB/c nude mouse xenografted with human MDA-MB-231 cells assessed as appearance of apoptotic/necrotic cells in lungs at 5 mg/kg, iv administered once every 3 days for 27 days starting from day 3 by H and E staining based analysis; type: organism-based; settings: in vivo, 576 h, time 24 day
[21] = system: MCF7; test: Cytotoxicity against ROR1-negative human MCF7 cells assessed as decrease in cell viability incubated for 24 hrs by CCK-8 assay; type: functional, cell-based; settings: MCF7, 24 h
[22] = Half life in Sprague-Dawley rat at 15 mg/kg, iv measured upto 12 hrs by UPLC-QTOF/MS analysis; type: ADME, organism-based; settings: in vivo
[23] = Clearance in Sprague-Dawley rat at 15 mg/kg, iv measured upto 12 hrs by UPLC-QTOF/MS analysis; type: ADME, organism-based; settings: in vivo
[24] = AUC(0 to t) in Sprague-Dawley rat at 15 mg/kg, iv measured upto 12 hrs by UPLC-QTOF/MS analysis; type: ADME, organism-based; settings: in vivo
[25] = AUC(0 to infinity) in Sprague-Dawley rat at 15 mg/kg, iv measured upto 12 hrs by UPLC-QTOF/MS analysis; type: ADME, organism-based; settings: in vivo
[26] = Area under the first moment curve in Sprague-Dawley rat at 15 mg/kg, iv measured upto 12 hrs by UPLC-QTOF/MS analysis; type: ADME, organism-based; settings: in vivo
[27] = MRT in Sprague-Dawley rat at 15 mg/kg, iv measured upto 12 hrs by UPLC-QTOF/MS analysis; type: ADME, organism-based; settings: in vivo
[28] = biological target: Inactive tyrosine-protein kinase transmembrane receptor ROR1 (Homo sapiens, UniProt Q01973); test: Binding affinity to N-terminal His/GST-tagged recombinant human ROR1 (453 to 783 residues) extracted from baculovirus infected insect cells assessed as dissociation constant by SPR analysis
Sequence of Inactive tyrosine-protein kinase transmembrane receptor ROR1 (Q01973 whole entry, the tested form may be a part): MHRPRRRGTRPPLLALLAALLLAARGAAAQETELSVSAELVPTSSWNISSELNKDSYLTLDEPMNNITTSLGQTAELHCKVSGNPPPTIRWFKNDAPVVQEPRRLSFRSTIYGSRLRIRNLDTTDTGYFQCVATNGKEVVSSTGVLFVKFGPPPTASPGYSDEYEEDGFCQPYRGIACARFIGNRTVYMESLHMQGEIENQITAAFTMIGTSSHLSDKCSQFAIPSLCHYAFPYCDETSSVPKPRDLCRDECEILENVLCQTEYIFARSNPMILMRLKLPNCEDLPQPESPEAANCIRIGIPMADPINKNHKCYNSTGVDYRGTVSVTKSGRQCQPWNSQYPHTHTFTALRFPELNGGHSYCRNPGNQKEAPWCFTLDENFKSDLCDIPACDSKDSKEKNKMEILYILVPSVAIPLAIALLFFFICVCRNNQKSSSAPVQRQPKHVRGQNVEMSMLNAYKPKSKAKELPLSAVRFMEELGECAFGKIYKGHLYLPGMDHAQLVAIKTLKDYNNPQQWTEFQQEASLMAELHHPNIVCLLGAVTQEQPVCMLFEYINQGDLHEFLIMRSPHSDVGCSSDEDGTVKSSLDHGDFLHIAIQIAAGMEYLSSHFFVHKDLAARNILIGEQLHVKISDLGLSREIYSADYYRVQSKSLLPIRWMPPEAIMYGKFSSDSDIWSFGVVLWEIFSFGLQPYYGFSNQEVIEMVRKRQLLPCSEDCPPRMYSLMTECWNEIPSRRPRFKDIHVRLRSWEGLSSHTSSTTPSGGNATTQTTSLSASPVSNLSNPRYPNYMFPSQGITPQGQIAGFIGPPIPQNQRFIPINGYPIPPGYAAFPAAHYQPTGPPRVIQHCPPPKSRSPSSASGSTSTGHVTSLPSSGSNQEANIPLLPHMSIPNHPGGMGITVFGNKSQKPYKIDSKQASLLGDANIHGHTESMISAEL

[29] = Drug uptake in ROR1-positive human MDA-MB-231 cells cytoplasm assessed as increase in red fluorescence at 10 uM measured after 2 hrs by Hoechst 33342 staining based confocal fluorescence microscopic analysis; type: ADME, subcellular; settings: mda-mb-231, 2 h
[30] = Drug uptake in ROR1-negative human MCF7 cells assessed as increase in fluorescence intensity at 10 uM incubated for 2 hrs by Hoechst 33342 staining based confocal fluorescence microscopic analysis; type: ADME, cell-based; settings: mcf7, 2 h
[31] = system: MDA-MB-231; test: Induction of apoptosis in human MDA-MB-231 cells assessed as viable cells at 15 nM incubated for 24 hrs by AnnexinV-FITC/PI staining based flow cytometry (reference value: 99.9%); type: functional; settings: read-out: Activity
[32] = system: MDA-MB-231; test: Induction of apoptosis in human MDA-MB-231 cells assessed as early apoptotic cells at 15 nM incubated for 24 hrs by AnnexinV-FITC/PI staining based flow cytometry (reference value: 0%); type: functional
[33] = system: MDA-MB-231; test: Induction of apoptosis in human MDA-MB-231 cells assessed as late apoptotic cells at 15 nM incubated for 24 hrs by AnnexinV-FITC/PI staining based flow cytometry (reference value: 0.034%); type: functional
[34] = system: MDA-MB-231; test: Induction of apoptosis in human MDA-MB-231 cells assessed as necrotic cells at 15 nM incubated for 24 hrs by AnnexinV-FITC/PI staining based flow cytometry (reference value: 0.034%); type: functional
[35] = Toxicity in BALB/c nude mouse xenografted with human MDA-MB-231 cells assessed as change in body weight at 5 mg/kg, iv measured after first injection starting from day 3 on day 6; type: organism-based; settings: in vivo, 72 h, time 3 day
[36] = Toxicity in BALB/c nude mouse xenografted with human MDA-MB-231 cells assessed as effect on heart at 5 mg/kg, iv administered once every 3 days for 27 days starting from day 3 by H and E staining based analysis; type: organism-based; settings: in vivo, 576 h, time 24 day
[37] = Toxicity in BALB/c nude mouse xenografted with human MDA-MB-231 cells assessed as effect on liver at 5 mg/kg, iv administered once every 3 days for 27 days starting from day 3 by H and E staining based analysis; type: organism-based; settings: in vivo, 576 h, time 24 day
[38] = Toxicity in BALB/c nude mouse xenografted with human MDA-MB-231 cells assessed as effect on spleen at 5 mg/kg, iv administered once every 3 days for 27 days starting from day 3 by H and E staining based analysis; type: organism-based; settings: in vivo, 576 h, time 24 day
[39] = Toxicity in BALB/c nude mouse xenografted with human MDA-MB-231 cells assessed as effect on lung at 5 mg/kg, iv administered once every 3 days for 27 days starting from day 3 by H and E staining based analysis; type: organism-based; settings: in vivo
[40] = Toxicity in BALB/c nude mouse xenografted with human MDA-MB-231 cells assessed as effect on kidney at 5 mg/kg, iv administered once every 3 days for 27 days starting from day 3 by H and E staining based analysis; type: organism-based; settings: in vivo
[41] = Toxicity in BALB/c nude mouse xenografted with human MDA-MB-231 cells assessed as effect on ALT level at 5 mg/kg, iv administered once every 3 days for 27 days starting from day 3; type: organism-based; settings: in vivo, 576 h, time 24 day
[42] = Toxicity in BALB/c nude mouse xenografted in human MDA-MB-231 cells assessed as effect on AST level at 5 mg/kg, iv administered once every 3 days for 27 days starting from day 3; type: organism-based; settings: in vivo, 576 h, time 24 day
[43] = Elimination rate constant in Sprague-Dawley rat at 15 mg/kg, iv measured upto 12 hrs by UPLC-QTOF/MS analysis; type: ADME, organism-based; settings: in vivo

## COc1cccc2c1C(=O)c1c(O)c3c(c(O)c1C2=O)C[C@@](O)(C(=O)CO)C[C@@H]3O[C@H]1C[C@H](N)[C@H](O)[C@H](C)O1 [DOXORUBICIN]
[1]
  IC50: 183 nM
[2]
  IC50: 28 nM
[3]
  IC50 at 24 h: 121 nM
[4]
  Drug uptake: Active
[5]
  Activity: Active; Exhibited Apoptosis Mostly In Late Stage
[6]
  viability at 0.016 µM: 71.5%
[7]
  Activity: 24.9%
[8]
  Activity: 3.25%
[9]
  Activity: 0.39%
[10]
  Activity: inactive
[11]
  Activity: Toxic
[12]
  Activity: Not active; Poor Antitumor Effect Observed
[13]
  Activity: Toxic
[14]
  Activity: Toxic
[15]
  Activity: Toxic
[16]
  Activity: Toxic
[17]
  Activity: Toxic
[18]
  Activity: Toxic
[19]
  Activity: Toxic
[20]
  Activity: Toxic

## CC[C@H](C)[C@H](NC(=O)[C@H](CC(=O)O)NC(=O)[C@H](CO)NC(=O)CNC(=O)[C@H](CSC1CC(=O)N(CCCCCC(=O)NC(C(=O)NC(CCCNC(N)=O)C(=O)Nc2ccc(COC(=O)N[C@H]3C[C@H](O[C@H]4C[C@](O)(C(=O)CO)Cc5c(O)c6c(c(O)c54)C(=O)c4c(OC)cccc4C6=O)O[C@@H](C)[C@H]3O)cc2)C(C)C)C1=O)NC(=O)CNC(=O)[C@H](CCCCN)NC(=O)COCCOCCNC(=O)COCCOCCNC(=O)[C@H](CCC(=O)O)NC(=O)CCCCCCCCCCCCCCCCC(=O)O)C(=O)N[C@@H](CC(N)=O)C(=O)N[C@@H](CC(=O)O)C(=O)N[C@@H](CCCNC(=N)N)C(=O)N[C@@H](CCC(N)=O)C(=O)N[C@H](C(=O)N1CCC[C@H]1C(=O)NCC(=O)N[C@@H](Cc1ccc(O)cc1)C(=O)N[C@@H](CO)C(=O)N[C@H](C(=O)N[C@@H](Cc1ccc(O)cc1)C(=O)N[C@@H](Cc1c[nH]c2ccccc12)C(=O)NCC(=O)N[C@@H](CC(=O)O)C(=O)N[C@@H](Cc1ccccc1)C(N)=O)[C@@H](C)O)[C@@H](C)CC (some centres undefined) ({C18 diacid}-E[AEEA][AEEA]KGC(X1)GSDINDRQIPGYSTYWGDF-NH2)
[1]
  IC50: 15 nM
[2]
  IC50: 576 nM
[21]
  IC50: 10500 nM
[3]
  IC50 at 24 h: 23200 nM
[22]
  half-life: 2.62 h
[23]
  CL: 0.001 mg/ng/mL/h
[24]
  AUCt: 55100 ng·h/mL
[25]
  AUC(0-inf): 57800 ng·h/mL
[26]
  AUMC: 217552.348 ng/mL.hr^2
[27]
  MRT: 3.78 h
[28]
  Kd: 1.72 nM
[29]
  Drug uptake: Active
[30]
  Drug uptake: Not_active
[5]
  Activity: Active; Exhibited Apoptosis Primarily In Early Stage
[6]
  viability at 0.016 µM: 50.3%
[7]
  Activity: 39.7%
[8]
  Activity: 9.51%
[9]
  Activity: 0.5%
[31]
  viability at 0.015 µM: 80.1%
[32]
  Activity: 13.3%
[33]
  Activity: 5.59%
[34]
  Activity: 1.02%
[35]
  Activity: Non-toxic
[10]
  Activity: inactive
[11]
  Activity: Non-toxic
[12]
  Activity: Active
[36]
  Activity: Non-toxic
[37]
  Activity: Non-toxic
[38]
  Activity: Non-toxic
[39]
  Activity: Non-toxic
[40]
  Activity: Non-toxic
[41]
  Activity: Toxic
[42]
  Activity: Toxic
[43]
  k el at 12 h: 8.92e-05 s⁻¹
